Experimental data published in patent publication US7371766B2, “Curcumin analogs with anti-tumor and anti-angiogenic properties” (Emory University, priority 1999, dated 2008).

Legend:
[1] = test system: HUVECS; assay: Emory Laboratory Cell Screen, Neutral Red, HUVECS; type: cell-based, human; details: Homo sapiens, HUVEC, 72 hours, read-out: Median Growth Inhibitory Concentration (GI50)
Procedure: (§1) Human tumor and endothelial cell lines were treated for 72 hours with compounds at a minimum of four concentrations between 0.1 μM-40 μM. Neutral Red assay was used to calculate cell viability.

[2] = test system: Tissue Factor (TF) production by human prostate cancer cell line DU-145; assay: TF ELISA, DU-145; type: cell-based; details: 20 μM; for TF (% of DMSO): DMSO = 100%; for TF: mean of triplicate and S.D., DMSO 7699 ± 406
Procedure: (§2) Cells were treated with 1% Triton X-100 in PBS and left overnight at 4° C. overnight to solubilize TF. […] IMUBIND Tissue Factor ELISA Kit (American Diagnostica Inc, Greenwich, Conn.) was used to determine TF concentration in each sample. The ELISA was carried out according to manufacturer's procedure.

[3] = test system: Vascular Endothelial Growth Factor (VEGF) production by human prostate cancer cell line PC-3; assay: VEGF ELISA, PC-3; type: cell-based; details: for VEGF (% of DMSO): DMSO = 100%
[4] = test system: Tissue Factor (TF) production by human prostate cancer cell line PC-3; assay: TF ELISA, PC-3; type: cell-based; details: 20 μM; for TF (% of DMSO): DMSO = 100%; for TF: mean of triplicate and S.D., DMSO 203 ± 6
Procedure: as §2

[5] = test system: Tissue Factor (TF) production by human melanoma cell line RPMI-7951; assay: TF ELISA, RPMI-7951; type: cell-based
Procedure: (§3) IMUBIND Tissue Factor ELISA Kit (American Diagnostica Inc, Greenwich, Conn.) was used to determine TF concentration in each sample. The ELISA was carried out according to manufacturer's procedure.

[6] = test system: RPMI 7951; assay: Emory Laboratory Cell Screen, Neutral Red, RPMI 7951; type: cell-based, human; details: Homo sapiens, RPMI 7951, Melanoma, 72 hours, read-out: Median Growth Inhibitory Concentration (GI50)
Procedure: as §1

[7] = test system: MDA-MB-231; assay: Emory Laboratory Cell Screen, Neutral Red, MDA-MB-231; type: cell-based, human; details: Homo sapiens, MDA-MB-231, Breast Cancer, 72 hours, read-out: Median Growth Inhibitory Concentration (GI50)
Procedure: as §1

[8] = test system: Tissue Factor (TF) production by human breast cancer cell line MDA-MB-231; assay: TF ELISA, MDA-MB-231; type: cell-based
Procedure: as §3

[9] = test system: MDA-MB-435; assay: Emory Laboratory Cell Screen, Neutral Red, MDA-MB-435; type: cell-based, human; details: Homo sapiens, MDA-MB-435, Breast Cancer, 72 hours, read-out: Median Growth Inhibitory Concentration (GI50)
Procedure: as §1

[10] = test system: Vascular Endothelial Growth Factor (VEGF) production by human prostate cancer cell line DU-145; assay: VEGF ELISA, DU-145; type: cell-based; details: for VEGF (% of DMSO): DMSO = 100%
[11] = test system: Human tumor and endothelial cell lines; assay: Emory Laboratory Cell Screen, mean over cell lines; type: cell-based; details: Homo sapiens, Endothelial cell; Mean over the Emory cell lines; 72 hours; read-out: Median Growth Inhibitory Concentration (GI50), Mean
Procedure: as §1

[12] = 20 μM, mean of triplicate and S.D., DMSO 2103 ± 100
[13] = Table 4, 20 μM, mean of triplicate and S.D.
[14] = Table 5, 5 μM, DMSO control 7054
[15] = Table 5, 20 μM, DMSO control 7054
[16] = 20 μM, mean of triplicate and S.D., DMSO 18760 ± 2633

| SMILES | TF (% of DMSO) [2] | TF [2] [pg/mL] | VEGF (% of DMSO) ([3]; 20 μM) | VEGF [3, 12] [pg/mL] | VEGF ([3]; Table 4, 20 μM, DMSO = 100) [%] | VEGF [3, 13] [pg/mL] | TF (% of DMSO) [4] | TF [4] [pg/mL] | TF ([5]; 5 μM, DMSO = 100) [%] | TF ELISA ([5]; 5 μM, DMSO control 7054) [pg/ml/well] | TF ([5]; 20 μM, DMSO = 100) [%] | TF ELISA ([5]; 20 μM, DMSO control 7054) [pg/ml/well] | TF [5, 14] [pg/mL] | TF [5, 15] [pg/mL] | GI50 [6] [µM] | VEGF (% of DMSO) ([10]; 20 μM) | VEGF [10, 16] [pg/mL] | VEGF ([10]; Table 4, 20 μM, DMSO = 100) [%] | VEGF [10, 13] [pg/mL] | GI50 [11] [µM] | also measured |
| --- | --- | --- | --- | --- | --- | --- | --- | --- | --- | --- | --- | --- | --- | --- | --- | --- | --- | --- | --- | --- | --- |
| COc1cc(/C=C/C(=O)CC(=O)/C=C/c2ccc(O)c(OC)c2)ccc1O [Curcumin] | (93%) | 7134 ± 301 | (99%) | 2088 ± 103 | 99 | 2088 ± 103 | (68%) | 138 ± 10 | 126 | 7974 | 15 | 1026 | 8871 | 1026 | 6.3 | (96%) | 17957 ± 1910 | 96 | 17957 ± 1910 | 14.8 | GI50 [1]: 25 µM; GI50 [7]: 11.6 µM; TF ([8]; 5 μM, DMSO = 100): 100%; TF ([8]; 5 μM, DMSO control 45753): 45814 pg/mL; TF ([8]; 10 μM, DMSO = 100): 98%; TF ([8]; 10 μM, DMSO control 45753): 44727 pg/mL; GI50 [9]: 16.3 µM |
| O=C1C(=Cc2ccccc2O)CCCC1=Cc1ccccc1O [EF4, 2,6Bis(2-hydroxybenzylidene)cyclohexanone] | (67%) | 5180 ± 420 | (2%) | 48 ± 83 | 2 | 48 ± 83 | (16%) | 33 ± 7 | – | – | – | – | – | – | 3.6 | (55%) | 10274 ± 4467 | 55 | 10274 ± 4467 | 3.6 | – |
| C(=C\c1ccccc1)/S/C=C/c1ccccc1 [EF15] | – | – | – | – | – | – | – | – | 106 | 7506 | 109 | 7663 | 7506 | 7663 | – | – | – | – | – | – | TF ([8]; 20 μM, DMSO = 100): 101%; TF ([8]; 20 μM, DMSO control 45753): 46394 pg/mL |
